ChEMBL document CHEMBL5214900, “Design, Synthesis, and Biological Evaluation of Membrane-Active Bakuchiol Derivatives as Effective Broad-Spectrum Antibacterial Agents” (J Med Chem, 2021)
≈ marks a conversion by molar mass, not a printed value.

Legend:
Format in all cases: functional
[1] = system: Staphylococcus aureus; assay: Induction of drug resistance in Staphylococcus aureus ATCC 29213 assessed as fold change in MIC measured after 19 passages by CLSI based broth dilution method
[2] = system: Staphylococcus aureus; assay: Bactericidal activity against Staphylococcus aureus ATCC 29213 assessed as log reduction in viable bacteria at 8 times MIC measured after 8 hrs by time-killing assay
[3] = system: Staphylococcus aureus; assay: Antibacterial activity against methicillin-resistant Staphylococcus aureus NCTC10442 assessed as inhibition of bacterial growth incubated for 24 hrs by CLSI based broth dilution method
[4] = system: Staphylococcus aureus; assay: Antibacterial activity against Staphylococcus aureus ATCC 29213 assessed as inhibition of bacterial growth incubated for 24 hrs by CLSI based broth dilution method
[5] = system: Staphylococcus aureus; assay: Antibacterial activity against Staphylococcus aureus ATCC 29213 in C57BL/6 mouse model of bacterial keratitis assessed as log reduction in number of viable bacterial colonies in infected cornea at 50 mg/ml, TOP administered 4 times a day for 3 consecutive days; conditions: time 3 day
[6] = system: Staphylococcus aureus; assay: Antibacterial activity against methicillin-resistant Staphylococcus aureus N315 assessed as inhibition of bacterial growth incubated for 24 hrs by CLSI based broth dilution method
[7] = system: Escherichia coli; assay: Induction of drug resistance in Escherichia coli ATCC 25922 assessed as fold change in MIC measured after 19 passages by CLSI based broth dilution method
[8] = system: Escherichia coli; assay: Bactericidal activity against Escherichia coli ATCC 25922 assessed as log reduction in viable bacteria at 8 times MIC measured after 2 hrs by time-killing assay
[9] = system: Pseudomonas aeruginosa; assay: Antibacterial activity against Pseudomonas aeruginosa ATCC 9027 in C57BL/6 mouse model of bacterial keratitis assessed as log reduction in number of viable bacterial colonies in infected cornea at 3 mg/ml, TOP administered 4 times a day for 3 consecutive days; conditions: time 3 day

Q: With `CCn1cc(C(=O)O)c(=O)c2cc(F)c(N3CCNCC3)cc21` as the compound, how does the fold change (FC) [1] read?
A: 32

Q: Which results are given for `CN[C@H](CC(C)C)C(=O)N[C@H]1C(=O)N[C@@H](CC(N)=O)C(=O)N[C@H]2C(=O)N[C@H]3C(=O)N[C@H](C(=O)N[C@H](C(=O)O)c4cc(O)cc(O)c4-c4cc3ccc4O)[C@H](O)c3ccc(c(Cl)c3)Oc3cc2cc(c3O[C@@H]2O[C@H](CO)[C@@H](O)[C@H](O)[C@H]2O[C@H]2C[C@](C)(N)[C@H](O)[C@H](C)O2)Oc2ccc(cc2Cl)[C@H]1O` [VANCOMYCIN]?
A: log(activity) [2]: 1.22; MIC [3]: 1.56 µg/mL (≈ 1.08 µM); MIC [4]: 0.78 µg/mL (≈ 0.538 µM); log(activity) [5]: 6.05; MIC [6]: 1.56 µg/mL (≈ 1.08 µM)

Q: For `CC1(C)S[C@@H]2[C@H](NC(=O)[C@H](N)c3ccc(O)cc3)C(=O)N2[C@H]1C(=O)O` [AMOXICILLIN], which fold change (FC) [7] is on record?
A: 16

Q: What about the “log(activity)” value [8] of the same compound?
A: 1.22

Q: Which “log(activity)” value [9] does the source give for `COc1c(N2CCNC(C)C2)c(F)cc2c(=O)c(C(=O)O)cn(C3CC3)c12` (centres undefined) [GATIFLOXACIN] here?
A: 3.15
